According to PMC8689653 (ACS Catalysis, 2021):

Tested on: Lp-NOX
Test: NADH oxidation, absorbance at […] nm, Michaelis-Menten fit
Type: biochemical, Lactiplantibacillus pentosus
Conditions: free enzyme; 0.2 mM NADH, 0.025-0.2 mM flavin, 25 mM phosphate pH 7, 30 °C

Km [µM] | SMILES
215 ± 100 | Cc1cc2nc3c(=O)[nH]c(=O)nc-3n(C[C@H](O)[C@H](O)[C@H](O)COP(=O)(O)O)c2cc1C [FMN]
41 ± 20 | Cc1cc2nc3c(=O)[nH]c(=O)nc-3n(C[C@H](O)[C@H](O)[C@H](O)COP(=O)(O)OP(=O)(O)OC[C@H]3O[C@@H](n4cnc5c(N)ncnc54)[C@H](O)[C@@H]3O)c2cc1C [FAD]
